Results taken from patent US20240158446A1, “CYCLIC COMPOUND HAVING SELECTIVE INHIBITORY ACTION ON KRAS OVER HRAS AND NRAS” (CHUGAI SEIYAKU KABUSHIKI KAISHA, priority 2021, published 2024).
Like-named read-outs stand apart in the source and are kept apart here.

Legend:
[1] = target: GDP-bound HRAS wild-type protein (Homo sapiens, UniProt P01112); experiment: Binding to HRAS by surface plasmon resonance (SPR), Single Cycle Kinetics; conditions: for HRAS/KRAS (ratio of KD value for HRAS to KD value for KRAS): GDP-bound HRAS wild-type protein vs GDP-bound KRAS wild-type protein; for HRAS/KRAS (ratio of KD value with respect to GDP-bound HRAS wild-type protein to KD value with respect to KRAS): SPR KD ratio HRAS/KRAS, class symbols
Chain of GDP-bound HRAS wild-type protein (P01112 whole entry): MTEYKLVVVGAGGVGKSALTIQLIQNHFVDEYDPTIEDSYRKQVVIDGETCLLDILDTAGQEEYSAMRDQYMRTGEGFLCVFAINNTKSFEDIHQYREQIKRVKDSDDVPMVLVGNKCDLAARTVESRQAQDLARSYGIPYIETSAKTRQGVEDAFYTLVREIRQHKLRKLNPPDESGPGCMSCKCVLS

[2] = target: GDP-bound NRAS wild-type protein (Homo sapiens, UniProt P01111); experiment: Binding to NRAS by surface plasmon resonance (SPR), Single Cycle Kinetics; conditions: for NRAS/KRAS (ratio of KD value for NRAS to KD value for KRAS): GDP-bound NRAS wild-type protein vs GDP-bound KRAS wild-type protein; for NRAS/KRAS (ratio of KD value with respect to GDP-bound NRAS wild-type protein to KD value with respect to KRAS): SPR KD ratio NRAS/KRAS, class symbols
Chain of GDP-bound NRAS wild-type protein (P01111 whole entry): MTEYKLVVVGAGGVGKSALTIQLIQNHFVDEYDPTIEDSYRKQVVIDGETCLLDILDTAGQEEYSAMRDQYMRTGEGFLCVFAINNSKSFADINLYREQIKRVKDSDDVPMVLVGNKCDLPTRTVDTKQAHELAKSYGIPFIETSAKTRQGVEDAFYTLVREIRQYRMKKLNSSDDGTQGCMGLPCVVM

[3] = tested on: human lung cancer strain NCI-H441;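 note: cell proliferation inhibition after four days measured by CellTiter-Glo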
[4] = target: GDP-bound KRAS wild-type protein (Homo sapiens, UniProt P01116); experiment: Binding to KRAS by surface plasmon resonance (SPR), Single Cycle Kinetics
Chain of GDP-bound KRAS wild-type protein (P01116 whole entry): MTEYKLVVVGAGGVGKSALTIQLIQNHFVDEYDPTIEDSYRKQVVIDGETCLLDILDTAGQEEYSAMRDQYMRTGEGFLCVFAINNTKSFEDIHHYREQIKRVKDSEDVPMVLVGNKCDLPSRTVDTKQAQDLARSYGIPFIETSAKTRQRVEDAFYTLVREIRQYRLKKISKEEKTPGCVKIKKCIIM

[5] = SPR, Single Cycle Kinetics, 1:1 binding model, GDP-bound KRAS wild-type protein, read-out: KRAS KD
[6] = SPR Single Cycle Kinetics, GDP-bound KRAS wild-type protein, 1:1 binding model, read-out: KRAS KD
[7] = SPR, Single Cycle Kinetics, GDP-bound KRAS wild-type protein, read-out: KRAS KD

Compound	IC50 [3] [nM]	HRAS/KRAS (ratio of KD value with respect to GDP-bound HRAS wild-type protein to KD value with respect to KRAS) [1]	NRAS/KRAS (ratio of KD value with respect to GDP-bound NRAS wild-type protein to KD value with respect to KRAS) [2]	Kd [4, 6] [nM]	HRAS/KRAS (ratio of KD value for HRAS to KD value for KRAS) ([1]; SPR)	NRAS/KRAS (ratio of KD value for NRAS to KD value for KRAS) ([2]; SPR)	Kd [4, 7] [nM]	also measured
CCO[C@@H]1C[C@H]2C(=O)NC3(CCCC3)C(=O)N(C)[C@@H](C(CC)CC)C(=O)N(C)[C@H](C(=O)N3CCCC3)CC(=O)N(C)[C@@H](COC)C(=O)N[C@@H]([C@@H](C)CC)C(=O)N(C)CC(=O)N(C)[C@H]3C/C=C\CCN(C3=O)[C@@H](CC3CCC(F)(F)CC3)C(=O)N(C)CC(=O)N[C@@H](CCc3cc(F)c(C(F)(F)F)c(F)c3)C(=O)N2C1 [PP1441]	87.6	–	–	–	–	–	–	HRAS/KRAS (ratio of KD value for HRAS to KD value for KRAS) ([1]; SPR, KD ratio class): A (a compound having 10 or more and less than 20 is denoted as A); NRAS/KRAS (ratio of KD value for NRAS to KD value for KRAS) ([2]; SPR, KD ratio class): A (a compound having 10 or more and less than 20 is denoted as A); Kd [4, 5]: 0.7 nM
CCC[C@H]1C(=O)N[C@@H]([C@@H](C)CC)C(=O)N2CCC[C@H]2C(=O)N(C)[C@H]2C/C=C\CCN(C2=O)[C@@H](Cc2ccc(C(F)F)cc2)C(=O)N(C)CC(=O)N[C@@H](CCc2ccc(Cl)c(Cl)c2)C(=O)N2C[C@H](OC3CCC3)C[C@H]2C(=O)NC2(CC(C)(C)C2)C(=O)N(C)[C@@H](C(CC)CC)C(=O)N(C)[C@H](C(=O)N(C)C)CC(=O)N1C [PP2646]	92.6	A (a compound having 10 or more and less than 20 is denoted as A)	AA (a compound having 20 or more is denoted as AA)	1.6	–	–	–	–
CCO[C@@H]1C[C@H]2C(=O)NC3(CCC3)C(=O)N(C)[C@@H](C(CC)CC)C(=O)N(C)[C@H](C(=O)N(C)C)CC(=O)N(C)[C@@H](CC3CCCC3)C(=O)N[C@@H]([C@@H](C)CC)C(=O)N(C)CC(=O)N(C)[C@H]3C/C=C\CCN(C3=O)[C@@H](CC3CCCCC3)C(=O)N(C)CC(=O)N[C@@H](CCc3cc(F)c(C(F)(F)F)c(F)c3)C(=O)N2C1 [PP1430]	70.4	–	–	–	–	–	–	HRAS/KRAS (ratio of KD value for HRAS to KD value for KRAS) ([1]; SPR, KD ratio class): A (a compound having 10 or more and less than 20 is denoted as A); NRAS/KRAS (ratio of KD value for NRAS to KD value for KRAS) ([2]; SPR, KD ratio class): A (a compound having 10 or more and less than 20 is denoted as A); Kd [4, 5]: 0.85 nM
CCCOC[C@H]1C(=O)N[C@@H]([C@@H](C)CC)C(=O)N(C)CC(=O)N(C)[C@H]2C/C=C\CCN(C2=O)[C@@H](Cc2ccc(C)cc2)C(=O)N(C)CC(=O)N[C@@H](CCc2ccc(C(F)(F)F)c(OC)c2)C(=O)N2C[C@H](OCC)C[C@H]2C(=O)NC2(CC(C)(C)C2)C(=O)N(C)[C@@H](CC(C)(C)C)C(=O)N(C)[C@H](C(=O)N(C)C)CC(=O)N1C [PP2712]	6.3	B (a compound having 3 or more and less than 10 is denoted as B)	A (a compound having 10 or more and less than 20 is denoted as A)	0.11	–	–	–	–
CCO[C@@H]1C[C@H]2C(=O)NC3(CCC3)C(=O)N(C)[C@@H](C3CCCC3)C(=O)N(C)[C@H](C(=O)N(C)C)CC(=O)N(C)[C@@H](COCC(F)(F)F)C(=O)N[C@@H]([C@@H](C)CC)C(=O)N(C)CC(=O)N(C)[C@H]3C/C=C\CCN(C3=O)[C@@H](Cc3ccc(C(F)(F)F)cc3)C(=O)N(C)CC(=O)N[C@@H](CCc3cc(F)c(C(F)(F)F)c(F)c3)C(=O)N2C1 [PP1267]	10.8	–	–	–	–	–	–	HRAS/KRAS (ratio of KD value for HRAS to KD value for KRAS) ([1]; SPR, KD ratio class): A (a compound having 10 or more and less than 20 is denoted as A); NRAS/KRAS (ratio of KD value for NRAS to KD value for KRAS) ([2]; SPR, KD ratio class): A (a compound having 10 or more and less than 20 is denoted as A); Kd [4, 5]: 0.046 nM
CCOC[C@H]1C(=O)N[C@@H]([C@@H](C)CC)C(=O)N(C)CC(=O)N(C)[C@H]2C/C=C\CCN(C2=O)[C@@H](Cc2ccc(C(F)(F)F)cc2)C(=O)N(C)CC(=O)N[C@@H](CCc2ccc(C(F)(F)F)c(OC)c2)C(=O)N2C[C@H](OCC)C[C@H]2C(=O)NC2(CC(C)(C)C2)C(=O)N(C)[C@@H](CC2CCC2)C(=O)N(C)[C@H](C(=O)N(C)C)CC(=O)N1C [PP2765]	180	A (a compound having 10 or more and less than 20 is denoted as A)	A (a compound having 10 or more and less than 20 is denoted as A)	0.7	–	–	–	–
CCO[C@H](C)[C@@H]1NC(=O)[C@H](CC(C)C)N(C)C(=O)C[C@@H](C(=O)N(C)CC)N(C)C(=O)[C@H](C2CCCC2)N(C)C(=O)C2(CC(C)(C)C2)NC(=O)[C@@H]2C[C@H](C)CN2C(=O)[C@H](CCc2cc(F)c(C(F)(F)F)c(F)c2)NC(=O)CN(C)C(=O)[C@H](Cc2ccc(C)cc2)N2CC/C=C\C[C@@H](C2=O)N(C)C(=O)CN(C)C1=O [PP2414]	9.8	–	–	–	A (a compound having 10 or more and less than 20 is denoted as A)	A (a compound having 10 or more and less than 20 is denoted as A)	0.33	–
CCO[C@@H]1C[C@H]2C(=O)NC3(CC(C)(C)C3)C(=O)N(C)[C@@H](C(CC)CC)C(=O)N(C)[C@H](C(=O)N(C)C)CC(=O)N(C)[C@@H](COC)C(=O)N[C@@H]([C@@H](C)CC)C(=O)N(C3CC3)CC(=O)N(C)[C@H]3C/C=C\CCN(C3=O)[C@@H](CC3CCCCC3)C(=O)N(C)CC(=O)N[C@@H](CCc3cc(F)c(C(F)(F)F)c(F)c3)C(=O)N2C1 [PP2564]	222	A (a compound having 10 or more and less than 20 is denoted as A)	A (a compound having 10 or more and less than 20 is denoted as A)	7.6	–	–	–	–
CCC[C@H]1C(=O)N[C@@H]([C@@H](C)CC)C(=O)N(C2CC2)CC(=O)N(C)[C@H]2C/C=C\CCN(C2=O)[C@@H](Cc2ccc(C(F)(F)F)cc2)C(=O)N(C)CC(=O)N[C@@H](CCc2cc(F)c(C(F)(F)F)c(F)c2)C(=O)N2C[C@H](OCC)C[C@H]2C(=O)N(C)C2(CCC2)C(=O)N(C)[C@@H](C2CCCC2)C(=O)N(C)[C@H](C(=O)N2CCCCC2)CC(=O)N1C [PP3110]	–	–	–	–	A (a compound having 10 or more and less than 20 is denoted as A)	A (a compound having 10 or more and less than 20 is denoted as A)	4.3	ratio of the KD value with respect to GDP-bound HRAS wild-type protein to the KD value with respect to KRAS ([1]; SPR, KD(HRAS)/KD(KRAS)): A (a compound having 10 or more and less than 20 is denoted as A); ratio of the KD value with respect to GDP-bound NRAS wild-type protein to the KD value with respect to KRAS ([2]; SPR, KD(NRAS)/KD(KRAS)): A (a compound having 10 or more and less than 20 is denoted as A); IC50 ([3]; read-out: NCI-H441 cell proliferation inhibitory activity, 50% proliferation inhibitory concentration (IC50 value), NCI-H441, four days, CellTiter-Glo): 69.9 nM; Kd ([4]; SPR, Single Cycle Kinetics, 1:1 binding model, read-out: KD value with respect to GDP-bound KRAS wild-type protein): 4.3 nM
CCO[C@@H]1C[C@H]2C(=O)NC3(CC(C)(C)C3)C(=O)N(C)[C@@H](C(CC)CC)C(=O)N(C)[C@H](C(=O)N3CCCCC3)CC(=O)N(C)[C@@H](COC)C(=O)N[C@@H]([C@@H](C)CC)C(=O)N(C)CC(=O)N(C)[C@H]3C/C=C\CCN(C3=O)[C@@H](Cc3ccc(C(F)(F)F)cc3)C(=O)N(C)CC(=O)N[C@@H](CCc3ccc(Cl)c(Cl)c3)C(=O)N2C1 [PP2610]	126	A (a compound having 10 or more and less than 20 is denoted as A)	AA (a compound having 20 or more is denoted as AA)	1.3	–	–	–	–
CCC[C@H]1C(=O)N[C@@H]([C@@H](C)CC)C(=O)N(C)CC(=O)N(C)[C@H]2C/C=C\CCN(C2=O)[C@@H](CC2CCC(F)(F)CC2)C(=O)N(C)CC(=O)N[C@@H](CCc2ccc(C(F)(F)F)c(OC)c2)C(=O)N2C[C@H](OCC)C[C@H]2C(=O)NC2(CC(C)(C)C2)C(=O)N(C)[C@@H](C(CC)CC)C(=O)N(C)[C@H](C(=O)N(C)C)CC(=O)N1C [PP2482]	23.8	–	–	–	A (a compound having 10 or more and less than 20 is denoted as A)	A (a compound having 10 or more and less than 20 is denoted as A)	0.93	–
CC[C@H](C)[C@@H]1NC(=O)[C@H](COC)N(C)C(=O)C[C@@H](C(=O)N(C)C)N(C)C(=O)[C@H](C2CCCC2)N(C)C(=O)C2(CC(C)(C)C2)NC(=O)[C@@H]2C[C@H](C)CN2C(=O)[C@H](CCc2ccc(C(F)(F)F)c(Cl)c2)NC(=O)CN(C)C(=O)[C@H](Cc2ccc(C)cc2)N2CC/C=C\C[C@@H](C2=O)N(C)C(=O)CN(C)C1=O [PP2502]	7.9	–	–	–	A (a compound having 10 or more and less than 20 is denoted as A)	A (a compound having 10 or more and less than 20 is denoted as A)	0.065	–
